These results are taken from PubChem BioAssay AID504751 (National Center for Advancing Translational Sciences (NCATS), 2011).

The test system of this data set is Kinetic aqueous solubility, PBS pH 7.4, LC-UV/MS. Put plainly: Inhibitors of Cruzain: Aqueous Profiling Assay. The text has this: Chagas Disease is a neglected tropical disease that affects over 16 million people in Latin America. The cysteine protease cruzain is essential for the survival Trypanosoma cruzi, the parasitic agent responsible for Chagas disease. Potential intervention for T. cruzi includes the inhibition of cruzain. This bioassay will summarize the ongoing development of small molecule cruzain inhbitiors. Currently, a screen of ~200k compounds and through extensive follow-up work a probe was identified. To further characterize the probe, it was tested in in vitro ADME assays. This bioassay provides profiling data on aqueous kinetic solubility (PBS @ pH 7.4), an important measure that affects in vivo bioavailability. NIH Chemical Genomics Center [NCGC] NIH Molecular Libraries Probe Production Centers Network [MLPCN] MLSCN Grant: DA024891-01 PI Name: Dr. Brian Shoichet; University of California, San Francisco
1. 8ul of reference and test compound stock solution were added to 392ul 100mM phosphate buffer (pH 7.4) 2. Sample tubes were shaken for 1 hr (1000 rpm) at room temperature 3. Samples were centrifuged (10 min at 12000 rpm) to precipitate un-dissolved particles 4. Supernatants were transferred to new tubes 5. Concentration of the supernatant was determined by LC-UV or LC-MS/MS

In brackets after ≈: the same amount, converted by molar mass.

Consider `Cc1ccc(OCCn2c(CCNC(=O)C3CCCCC3)nc3ccccc32)cc1`, for which the solubility was 5 µM (≈ 2.03 µg/mL).
